Measured values reported in paper PMC2361324, “Phase 1 trial of the antiangiogenic peptide ATN-161 (Ac-PHSCN-NH2), a beta integrin antagonist, in patients with solid tumours” (British Journal of Cancer, 2006).

Experiments:
advanced solid tumours = assay: Clinical response by RECIST in phase 1 trial; type: in vivo, human
Description: During treatment, patients were evaluated monthly with physical examinations including toxicity assessment using the CTC, ECOG PS, serum chemistry, haematology and coagulation testing. Tumour burden was reassessed every two cycles (8 weeks) by physical exam or radiological methods as appropriate using RECIST ([Therasse et al, 2000]).

[1] = Serological antibody immune response against ATN-161 in patients; type: in vivo, human
MLL tumours = settings: Copenhagen rats, ref Livant et al, 2000b, cited from earlier work
MLL cells = settings: attempts to show induction; ref Livant et al, 2000b; cited from earlier work
[2] = animal studies, preclinical; ref not given; cited from earlier work
integrin beta subunits = settings: ref Donate et al, 2003; cited from earlier work
Text: (§1) ATN-161 is a noncompetitive inhibitor of the fibronectin PHSRN sequence, in which a cysteine residue has been substituted for arginine along with peptide acetylation and amidation in order to yield a product with acceptable pharmaceutical properties (Ac-PHSCN-NH2). […] Thus, ATN-16 ...

[3] = tested on: integrin-dependent adhesion; settings: ref Plunkett and Mazar, 2002, Plunkett et al; cited from earlier work
Text: as §1

What does the source list for Ac-PHSCN-NH2 [ATN-161, Ac-PHSCN-NH2]?
Objective response as defined by RECIST (advanced solid tumours; 26 patients, 0.1-16 mg kg^−1 thrice weekly i.v.): No patient in the study had an objective response; Fraction of patients with prolonged stable disease (advanced solid tumours; patients in the study, all dose levels): 1/3; Patients with stable disease of >4 months (advanced solid tumours; six of the 26 treated patients, 0.1-16 mg kg^−1 thrice weekly i.v.): 23%; Antibody immune response against ATN-161 [1]: no serological evidence; Growth of primary MLL tumours (MLL tumours; systemic 5 mg kg^−1, five injections over 16 days): markedly reduced; Ability of MLL tumour cells to metastasise (MLL tumours): inhibited; Induction of apoptosis in MLL cells (MLL cells): unsuccessful; Immunogenicity [2]: not immunogenic; Binding to integrin subunits (integrin beta subunits): binds exclusively to integrin beta subunits; Block of integrin-dependent adhesion [3]: does not block
